Here are results for two compounds from patent US20240263142A1, “HUMAN OVARIAN CANCER NIRAPARIB-RESISTANT CELL STRAIN AND USE THEREOF” (WOMEN’S HOSPITAL, ZHEJIANG UNIVERSITY SCHOOL OF MEDICINE, priority 2022, published 2024).

The IC50 is the point on the concentration scale where inhibition reaches its midpoint.

Like-named read-outs stand apart in the source and are kept apart here.

The test system of assay [1] is A2780 cells. In words: CCK-8 cytotoxicity experiment on parental A2780 cells. To be noted: Homo sapiens, 72 h drug treatment. The class given is cell-based. As for the experimental part:
(§1) A cell counting kit-8 (CCK-8) of Shanghai Beyotime Biotechnology Co., Ltd. (C0038) was used in the cytotoxicity experiment. Cells in logarithmic growth phase were collected, and the concentration of cell suspension was adjusted to 5×10^4 cells/ml; 100 μl of the cell suspension was added to each well of 96-well plate, and the density of the cells to be tested was 5000 cells/well; cultures were incubated overnight in the incubator with 5 vol % CO2 at 37° C. until the cells were grown as adherent monolayers, and then drugs with concentrations of 1×10^−3-100 μM were added respectively; 3 replicate wells were set for each concentration; OD values were determined after 72 h of drug treatment; 10 μl CCK-8 solution was added to each well; after further incubation in the cell incubator for 2 h, the absorbance was measured at 450 nm using a microplate reader (Bio-Rad, Model 680), as shown in FIG. 3. The IC50 of the drug was calculated.

Assay [2] concerns A2780-NiraR cells. As to the kind of experiment: CCK-8 cytotoxicity experiment on Niraparib-resistant A2780-NiraR cells (resistance index, stability of resistance). The class given is cell-based, human. Conditions: for Drug resistance index (RI) = IC50 of drug-resistant cells/IC50 of parental cells: A2780-NiraR vs A2780; for IC50: Homo sapiens. Here is the method: as §1
Resistance index (RI)=IC50 of drug-resistant cells/IC50 of parental cells.
After the establishment of A2780-NiraR cell strain, the drug resistance was re-tested after cell resuscitation following 3-month drug-withdrawal culture and 6-month liquid nitrogen cryopreservation. The procedure was the same as that of the resistance index determination in part 3.

[3] abbreviates: A2780-NiraR cells, 72 h drug treatment, CCK-8, read-out: IC50.

As for `NC(=O)c1cccc2cn(-c3ccc([C@@H]4CCCNC4)cc3)nc12` [Niraparib], the half-maximal inhibitory concentration (IC50) was determined as 3.17 µM in assay [1]; 24 µM in assay [2] (A2780-NiraR after resuscitation following 3-month drug-withdrawal culture and 6-month liquid nitrogen cryopreservation, read-out: IC50 of A2780-NiraR on re-test); 26.2 µM in assay [2] (setting [3]). Moreover, the “Resistance of A2780-NiraR cells in words” value in assay [2] (A2780-NiraR cells) is listed as “highly resistant”. In addition, in assay [2], the “Drug resistance index (RI) = IC50 of drug-resistant cells/IC50 of parental cells” value was 8.274.
On to `CC(=O)O[C@H]1C(=O)[C@@]2(C)[C@H]([C@H](OC(=O)c3ccccc3)[C@]3(O)C[C@H](OC(=O)[C@H](O)[C@@H](NC(=O)c4ccccc4)c4ccccc4)C(C)=C1C3(C)C)[C@]1(OC(C)=O)CO[C@@H]1C[C@@H]2O` [Paclitaxel], for which the IC50 came to 0.01 µM in assay [1] and 0.318 µM in assay [2] (setting [3]). Further, the “Resistance of A2780-NiraR cells in words” value in assay [2] (A2780-NiraR cells) is “cross-resistant”. Further, in assay [2], the “Drug resistance index (RI) = IC50 of drug-resistant cells/IC50 of parental cells” value turned out to be 31.02.
